Patent publication US20150105252A1, “SUBSTITUTED PYRAZOLES AS HERBICIDES” (E I DU PONT DE NEMOURS AND COMPANY, priority 2013, published 2015)

Columns and labels:
[1] = system: foxtail, giant; assay: Test A preemergence; type: in vivo, Setaria faberii; settings: Preemergence, 1000 g ai/ha; 0 to 100 scale, 0 no effect, 100 complete control
In short: (§1)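 After sowing in a sand–loam mix, pots received compound preemergence by directed soil spray, or postemergence once plants reached the one- to two-leaf stage (2–10 cm). Formulation contained surfactant in a non-phytotoxic solvent. Injury was scored visually after ~10 greenhouse days, 0–100 scale.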

[2] = system: rice; assay: Test C flooded paddy test; type: in vivo, Oryza sativa; settings: Flood
Source text: (§2) At time of treatment, test pots were flooded to 3 cm above the soil surface, treated by application of test compounds directly to the paddy water, and then maintained at that water depth for the duration of the test. Treated plants and controls were maintained in a greenhouse for 13 to 15 days, after which time all species were compared to controls and visually evaluated. […] A dash (-) response means no test result.

[3] = system: velvetleaf; assay: Test A preemergence; type: in vivo, Abutilon theophrasti; settings: Preemergence, 1000 g ai/ha; 0 to 100 scale, 0 no effect, 100 complete control
In short: as §1

[4] = system: sedge, umbrella; assay: Test C flooded paddy test; type: in vivo, Cyperus difformis; settings: Flood
Source text: as §2

[5] = system: barnyardgrass; assay: Test C flooded paddy test; type: in vivo, Echinochloa crus-galli; settings: Flood
Source text: as §2

[6] = system: corn; assay: Test A preemergence; type: in vivo, Zea mays; settings: Preemergence, 1000 g ai/ha; 0 to 100 scale, 0 no effect, 100 complete control
In short: as §1

[7] = system: wheat; assay: Test A preemergence; type: in vivo, Triticum aestivum
In short: as §1

[8] = system: foxtail, giant; assay: Test A postemergence; type: in vivo, Setaria faberii; settings: Postemergence, 1000 g ai/ha; visual rating after approx. 10 days, 0 to 100 scale (0 no effect, 100 complete control)
In short: as §1

[9] = system: barnyardgrass; assay: Test A preemergence; type: in vivo, Echinochloa crus-galli; settings: Preemergence, 1000 g ai/ha; 0 to 100 scale, 0 no effect, 100 complete control
In short: as §1

[10] = system: pigweed; assay: Test A postemergence; type: in vivo, Amaranthus retroflexus; settings: Postemergence, 1000 g ai/ha; visual rating after approx. 10 days, 0 to 100 scale (0 no effect, 100 complete control)
In short: as §1

[11] = system: velvetleaf; assay: Test A postemergence; type: in vivo, Abutilon theophrasti; settings: Postemergence, 1000 g ai/ha; visual rating after approx. 10 days, 0 to 100 scale (0 no effect, 100 complete control)
In short: as §1

[12] = system: crabgrass, large; assay: Test A preemergence; type: in vivo, Digitaria sanguinalis; settings: Preemergence, 1000 g ai/ha; 0 to 100 scale, 0 no effect, 100 complete control
In short: as §1

[13] = system: ducksalad; assay: Test C flooded paddy test; type: in vivo, Heteranthera limosa; settings: Flood
Source text: as §2

[14] = system: crabgrass, large; assay: Test A postemergence; type: in vivo, Digitaria sanguinalis; settings: Postemergence, 1000 g ai/ha; visual rating after approx. 10 days, 0 to 100 scale (0 no effect, 100 complete control)
In short: as §1

[15] = system: pigweed; assay: Test A preemergence; type: in vivo, Amaranthus retroflexus; settings: Preemergence, 1000 g ai/ha; 0 to 100 scale, 0 no effect, 100 complete control
In short: as §1

[16] = system: morningglory; assay: Test A preemergence; type: in vivo, Ipomoea spp.; settings: Preemergence, 1000 g ai/ha; 0 to 100 scale, 0 no effect, 100 complete control
In short: as §1

[17] = system: wheat; assay: Test A postemergence; type: in vivo, Triticum aestivum; settings: Postemergence, 1000 g ai/ha; visual rating after approx. 10 days, 0 to 100 scale (0 no effect, 100 complete control)
In short: as §1

[18] = system: barnyardgrass; assay: Test A postemergence; type: in vivo, Echinochloa crus-galli; settings: Postemergence, 1000 g ai/ha; visual rating after approx. 10 days, 0 to 100 scale (0 no effect, 100 complete control)
In short: as §1

[19] = system: corn; assay: Test A postemergence; type: in vivo, Zea mays; settings: Postemergence, 1000 g ai/ha; visual rating after approx. 10 days, 0 to 100 scale (0 no effect, 100 complete control)
In short: as §1

[20] = system: morningglory; assay: Test A postemergence; type: in vivo, Ipomoea spp.; settings: Postemergence, 1000 g ai/ha; visual rating after approx. 10 days, 0 to 100 scale (0 no effect, 100 complete control)
In short: as §1

[21] = 31 g ai/ha, scale 0 to 100 (0 no effect, 100 complete control)
[22] = 62 g ai/ha, scale 0 to 100 (0 no effect, 100 complete control)
[23] = Preemergence, 1000 g ai/ha, 0 to 100 scale, 0 no effect, 100 complete control

Structure (SMILES) | Foxtail, Giant plant response rating [1] | Plant response rating, Rice [2, 21] | Plant response rating, Rice [2, 22] | Plant response rating, Rice ([2]; 125 g ai/ha, scale 0 to 100) | Plant response rating, Rice ([2]; 250 g ai/ha, scale 0 to 100) | Velvetleaf plant response rating [3] | Corn plant response rating [6] | Wheat plant response rating [7, 23] | Foxtail, Giant plant response rating [8] | Barnyardgrass plant response rating [9] | Pigweed plant response rating [10] | Velvetleaf plant response rating [11] | Crabgrass, Large plant response rating [12] | Crabgrass, Large plant response rating [14] | Pigweed plant response rating [15] | Morningglory plant response rating [16] | Wheat plant response rating [17] | Barnyardgrass plant response rating [18] | Corn plant response rating [19] | Morningglory plant response rating [20] | further results
CCc1cc(C(=O)NCC2CC2)nn1Cc1cccc(OC(F)(F)F)c1 [Compound 53] | 90 | 0 | 0 | 10 | 30 | 30 | 10 | 0 | 50 | 40 | 80 | 80 | 100 | 50 | 100 | 40 | 30 | 40 | 40 | 90 | Plant response rating, Sedge, Umbrella [4, 21]: 0; Plant response rating, Sedge, Umbrella [4, 22]: 0; Plant response rating, Sedge, Umbrella ([4]; 125 g ai/ha, scale 0 to 100): 0; Plant response rating, Sedge, Umbrella ([4]; 250 g ai/ha, scale 0 to 100): 80; Plant response rating, Barnyardgrass [5, 21]: 0; Plant response rating, Barnyardgrass [5, 22]: 0; Plant response rating, Barnyardgrass ([5]; 125 g ai/ha, scale 0 to 100): 0; Plant response rating, Barnyardgrass ([5]; 250 g ai/ha, scale 0 to 100): 15; Plant response rating, Ducksalad [13, 21]: 0; Plant response rating, Ducksalad [13, 22]: 0; Plant response rating, Ducksalad ([13]; 125 g ai/ha, scale 0 to 100): 0; Plant response rating, Ducksalad ([13]; 250 g ai/ha, scale 0 to 100): 40
CCCc1cc(C(=O)NCC)nn1Cc1cccc(OC(F)(F)F)c1 [Compound 33] | 90 | 0 | 0 | 0 | 0 | 40 | 0 | 10 | 70 | 40 | 80 | 80 | 100 | 80 | 90 | 40 | 20 | 30 | 20 | 100 | Plant response rating, Sedge, Umbrella [4, 21]: 10; Plant response rating, Sedge, Umbrella [4, 22]: 30; Plant response rating, Sedge, Umbrella ([4]; 125 g ai/ha, scale 0 to 100): 30; Plant response rating, Sedge, Umbrella ([4]; 250 g ai/ha, scale 0 to 100): 85; Plant response rating, Barnyardgrass [5, 21]: 0; Plant response rating, Barnyardgrass [5, 22]: 0; Plant response rating, Barnyardgrass ([5]; 125 g ai/ha, scale 0 to 100): 0; Plant response rating, Barnyardgrass ([5]; 250 g ai/ha, scale 0 to 100): 0; Plant response rating, Ducksalad [13, 21]: 0; Plant response rating, Ducksalad [13, 22]: 10; Plant response rating, Ducksalad ([13]; 125 g ai/ha, scale 0 to 100): 20; Plant response rating, Ducksalad ([13]; 250 g ai/ha, scale 0 to 100): 80
CCCc1cc(C(=O)NC2CC2)nn1Cc1cccc(OC(F)(F)F)c1 [Compound 34] | 100 | 0 | 0 | 0 | 10 | 30 | 10 | 20 | 90 | 60 | 100 | 100 | 100 | 90 | 80 | 60 | 30 | 50 | 40 | 100 | Plant response rating, Sedge, Umbrella [4, 21]: 0; Plant response rating, Sedge, Umbrella [4, 22]: 10; Plant response rating, Sedge, Umbrella ([4]; 125 g ai/ha, scale 0 to 100): 70; Plant response rating, Sedge, Umbrella ([4]; 250 g ai/ha, scale 0 to 100): 80; Plant response rating, Barnyardgrass [5, 21]: 0; Plant response rating, Barnyardgrass [5, 22]: 0; Plant response rating, Barnyardgrass ([5]; 125 g ai/ha, scale 0 to 100): 0; Plant response rating, Barnyardgrass ([5]; 250 g ai/ha, scale 0 to 100): 20; Plant response rating, Ducksalad [13, 21]: 0; Plant response rating, Ducksalad [13, 22]: 10; Plant response rating, Ducksalad ([13]; 125 g ai/ha, scale 0 to 100): 30; Plant response rating, Ducksalad ([13]; 250 g ai/ha, scale 0 to 100): 80
CCCc1cc(C(=O)NCC(F)(F)F)nn1Cc1cccc(OC(F)(F)F)c1 [Compound 32] | 100 | 0 | 0 | 0 | 0 | 30 | 0 | 0 | 50 | 70 | 100 | 80 | 100 | 70 | 100 | 50 | 20 | 40 | 30 | 100 | Plant response rating, Sedge, Umbrella [4, 21]: 20; Plant response rating, Sedge, Umbrella [4, 22]: 30; Plant response rating, Sedge, Umbrella ([4]; 125 g ai/ha, scale 0 to 100): 50; Plant response rating, Sedge, Umbrella ([4]; 250 g ai/ha, scale 0 to 100): 80; Plant response rating, Barnyardgrass [5, 21]: 0; Plant response rating, Barnyardgrass [5, 22]: 0; Plant response rating, Barnyardgrass ([5]; 125 g ai/ha, scale 0 to 100): 0; Plant response rating, Barnyardgrass ([5]; 250 g ai/ha, scale 0 to 100): 0; Plant response rating, Ducksalad [13, 21]: 10; Plant response rating, Ducksalad [13, 22]: 20; Plant response rating, Ducksalad ([13]; 125 g ai/ha, scale 0 to 100): 50; Plant response rating, Ducksalad ([13]; 250 g ai/ha, scale 0 to 100): 70
CCc1cc(C(=O)NC(C)(C)C)nn1Cc1cccc(C(F)(F)F)c1 [Compound 50] | 30 | – | – | – | – | 0 | 0 | 0 | 30 | 10 | 30 | 10 | 10 | 10 | 0 | 0 | 0 | 10 | 20 | 10 | –
C#CCNC(=O)c1cc(CC)n(Cc2cccc(OC(F)(F)F)c2)n1 [Compound 54] | 20 | – | – | – | – | 0 | 0 | 0 | 10 | 10 | 70 | 60 | 40 | 10 | 90 | 0 | 10 | 10 | 20 | 70 | –
CCc1cc(C(=O)NCC(C)C)nn1Cc1cccc(OC(F)(F)F)c1 [Compound 60] | 100 | – | – | – | – | 0 | 0 | 0 | 40 | 30 | 60 | 60 | 90 | 30 | 90 | 20 | 20 | 20 | 30 | 100 | Wheat plant response rating ([7]; preemergence, 500 g ai/ha, visual injury after approx. 10 days, 0 to 100 scale (0 no effect, 100 complete control)): 0
